How the values were obtained:
fall panicum = test: Test E postemergence; assay type: in vivo, Panicum dichotomiflorum
Outline: (§1)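 Response was scored visually on a 0-100 scale (100 = complete control) versus controls after 14 to 21 days in the greenhouse. Test chemicals, formulated with surfactant in a non-phytotoxic solvent mixture, had been applied preemergence to seeds in silt loam soil or postemergence to 1- to 4-leaf plants in potting medium.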

[1] = test system: waterhemp_RES2 (ALS & HPPD resistant common waterhemp); test: Test E postemergence; assay type: in vivo, Amaranthus rudis; conditions: for pest or weed control at 31 g/ha / pest or weed control at 62 g/ha / pest or weed control at 125 g/ha / pest or weed control at 16 g/ha: Amaranthus tuberculatus, post-emergence, read-out: Plant response rating, Waterhemp_RES2
Outline: as §1

waterhemp = test: Test E postemergence; assay type: in vivo, Amaranthus rudis
Outline: as §1

[2] = test system: waterhemp_RES1 (ALS & Triazine resistant common waterhemp); test: Test E postemergence; assay type: in vivo, Amaranthus rudis
Outline: as §1

corn = test: Test E postemergence; assay type: in vivo, Zea mays
Outline: as §1

palmer pigweed = test: Test E postemergence; assay type: in vivo, Amaranthus palmeri
Outline: as §1

barnyardgrass = test: Test C flooded paddy test; assay type: in vivo, Echinochloa crus-galli; conditions: Flood, scale 0 to 100 (0 no effect, 100 complete control), 13 to 15 days
Outline: (§2)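 Greenhouse pots flooded to 3 cm above soil at time of treatment received compound via the water, which stayed at that level.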

rice = test: Test C flooded paddy test; assay type: in vivo, Oryza sativa; conditions: Flood, scale 0 to 100 (0 no effect, 100 complete control), 13 to 15 days
Outline: as §2

[3] = Panicum dichotomiflorum, post-emergence, Postemergence, 31 g ai/ha, scale 0 to 100, read-out: Plant response rating, Panicum, Fall
[4] = Panicum dichotomiflorum, post-emergence, Postemergence, 62 g ai/ha, scale 0 to 100, read-out: Plant response rating, Panicum, Fall
[5] = Panicum dichotomiflorum, post-emergence, Postemergence, 125 g ai/ha, scale 0 to 100, read-out: Plant response rating, Panicum, Fall
[6] = Panicum dichotomiflorum, post-emergence, postemergence, 16 g ai/ha, scale 0 to 100, 0 no effect, 100 complete control, read-out: Plant response rating, Panicum, Fall
[7] = Postemergence, 31 g ai/ha, scale 0 to 100
[8] = Postemergence, 62 g ai/ha, scale 0 to 100
[9] = Postemergence, 125 g ai/ha, scale 0 to 100
[10] = postemergence, 16 g ai/ha, scale 0 to 100, 0 no effect, 100 complete control
[11] = Amaranthus tuberculatus, post-emergence, Postemergence, 31 g ai/ha, scale 0 to 100, read-out: Plant response rating, Waterhemp
[12] = Amaranthus tuberculatus, post-emergence, Postemergence, 62 g ai/ha, scale 0 to 100, read-out: Plant response rating, Waterhemp
[13] = Amaranthus tuberculatus, post-emergence, Postemergence, 125 g ai/ha, scale 0 to 100, read-out: Plant response rating, Waterhemp
[14] = Amaranthus tuberculatus, post-emergence, postemergence, 16 g ai/ha, scale 0 to 100, 0 no effect, 100 complete control, read-out: Plant response rating, Waterhemp
[15] = Zea mays, post-emergence, Postemergence, 31 g ai/ha, scale 0 to 100
[16] = Zea mays, post-emergence, Postemergence, 62 g ai/ha, scale 0 to 100
[17] = Zea mays, post-emergence, Postemergence, 125 g ai/ha, scale 0 to 100
[18] = Zea mays, post-emergence, postemergence, 16 g ai/ha, scale 0 to 100, 0 no effect, 100 complete control
[19] = post-emergence, Postemergence, 31 g ai/ha, scale 0 to 100, read-out: Plant response rating, Pigweed, Palmer
[20] = post-emergence, Postemergence, 62 g ai/ha, scale 0 to 100, read-out: Plant response rating, Pigweed, Palmer
[21] = post-emergence, Postemergence, 125 g ai/ha, scale 0 to 100, read-out: Plant response rating, Pigweed, Palmer
[22] = post-emergence, postemergence, 16 g ai/ha, scale 0 to 100, 0 no effect, 100 complete control, read-out: Plant response rating, Pigweed, Palmer
[23] = postemergence, 8 g ai/ha, scale 0 to 100, 0 no effect, 100 complete control

N#Cc1cccc(Oc2ncc(F)cn2)c1-n1cc(C(F)(F)F)cn1 [Compound 79, 3-[(5-fluoro-2-pyrimidinyl)oxy]-2-[4-(trifluoromethyl)-1H-pyrazol-1-yl]benzonitrile]
pest or weed control at 31 g/ha (fall panicum; [3]): 35% | pest or weed control at 62 g/ha (fall panicum; [4]): 30% | pest or weed control at 125 g/ha (fall panicum; [5]): 30% | pest or weed control at 16 g/ha (fall panicum; [6]): 20% | pest or weed control at 31 g/ha [1, 7]: 80% | pest or weed control at 62 g/ha [1, 8]: 90% | pest or weed control at 125 g/ha [1, 9]: 95% | pest or weed control at 16 g/ha [1, 10]: 75% | pest or weed control at 31 g/ha (waterhemp; [11]): 90% | pest or weed control at 62 g/ha (waterhemp; [12]): 85% | pest or weed control at 125 g/ha (waterhemp; [13]): 100% | pest or weed control at 16 g/ha (waterhemp; [14]): 70% | Plant response rating, Waterhemp_RES1 [2, 7]: 60 | Plant response rating, Waterhemp_RES1 [2, 8]: 75 | Plant response rating, Waterhemp_RES1 [2, 9]: 100 | Plant response rating, Waterhemp_RES1 [2, 10]: 40 | corn plant response (injury) rating, 0-100 at 31 g/ha (corn; [15]): 0% | corn plant response (injury) rating, 0-100 at 62 g/ha (corn; [16]): 10% | corn plant response (injury) rating, 0-100 at 125 g/ha (corn; [17]): 15% | corn plant response (injury) rating, 0-100 at 16 g/ha (corn; [18]): 0% | pest or weed control at 31 g/ha (palmer pigweed; [19]): 50% | pest or weed control at 62 g/ha (palmer pigweed; [20]): 95% | pest or weed control at 125 g/ha (palmer pigweed; [21]): 90% | pest or weed control at 16 g/ha (palmer pigweed; [22]): 50%

Clc1cnc(Oc2ccccc2-n2cc(Br)nn2)nc1 [Compound 223]
Plant response rating, Panicum, Fall (fall panicum; [7]): 0 | Plant response rating, Panicum, Fall (fall panicum; [8]): 0 | Plant response rating, Panicum, Fall (fall panicum; [9]): 0 | Plant response rating, Panicum, Fall (fall panicum; [23]): 0 | Plant response rating, Panicum, Fall (fall panicum; [10]): 0 | Plant response rating, Waterhemp_RES2 [1, 7]: 80 | Plant response rating, Waterhemp_RES2 [1, 8]: 80 | Plant response rating, Waterhemp_RES2 [1, 9]: 95 | Plant response rating, Waterhemp_RES2 [1, 10]: 75 | Plant response rating, Waterhemp (waterhemp; [7]): 70 | Plant response rating, Waterhemp (waterhemp; [8]): 85 | Plant response rating, Waterhemp (waterhemp; [9]): 98 | Plant response rating, Waterhemp (waterhemp; [23]): 60 | Plant response rating, Waterhemp (waterhemp; [10]): 50 | Plant response rating, Waterhemp_RES1 [2, 7]: 80 | Plant response rating, Waterhemp_RES1 [2, 8]: 70 | Plant response rating, Waterhemp_RES1 [2, 9]: 95 | Plant response rating, Waterhemp_RES1 [2, 23]: 30 | Plant response rating, Waterhemp_RES1 [2, 10]: 60 | Plant response rating, Corn (corn; [7]): 0 | Plant response rating, Corn (corn; [8]): 0 | Plant response rating, Corn (corn; [9]): 5 | Plant response rating, Corn (corn; [23]): 0 | Plant response rating, Corn (corn; [10]): 0 | Plant response rating, Pigweed, Palmer (palmer pigweed; [7]): 50 | Plant response rating, Pigweed, Palmer (palmer pigweed; [8]): 60 | Plant response rating, Pigweed, Palmer (palmer pigweed; [9]): 85 | Plant response rating, Pigweed, Palmer (palmer pigweed; [23]): 15 | Plant response rating, Pigweed, Palmer (palmer pigweed; [10]): 25

Clc1cnc(Oc2cccc(Cl)c2-n2cc(I)cn2)nc1 [Compound 181]
Plant response rating, Panicum, Fall (fall panicum; [7]): 20 | Plant response rating, Panicum, Fall (fall panicum; [8]): 50 | Plant response rating, Panicum, Fall (fall panicum; [9]): 30 | Plant response rating, Panicum, Fall (fall panicum; [10]): 20 | Plant response rating, Waterhemp_RES2 [1, 7]: 95 | Plant response rating, Waterhemp_RES2 [1, 8]: 98 | Plant response rating, Waterhemp_RES2 [1, 9]: 100 | Plant response rating, Waterhemp_RES2 [1, 10]: 85 | Plant response rating, Waterhemp (waterhemp; [7]): 95 | Plant response rating, Waterhemp (waterhemp; [8]): 95 | Plant response rating, Waterhemp (waterhemp; [9]): 98 | Plant response rating, Waterhemp (waterhemp; [10]): 65 | Plant response rating, Waterhemp_RES1 [2, 7]: 95 | Plant response rating, Waterhemp_RES1 [2, 8]: 90 | Plant response rating, Waterhemp_RES1 [2, 9]: 95 | Plant response rating, Waterhemp_RES1 [2, 10]: 90 | Plant response rating, Corn (corn; [7]): 5 | Plant response rating, Corn (corn; [8]): 15 | Plant response rating, Corn (corn; [9]): 15 | Plant response rating, Corn (corn; [10]): 5 | Plant response rating, Pigweed, Palmer (palmer pigweed; [7]): 70 | Plant response rating, Pigweed, Palmer (palmer pigweed; [8]): 90 | Plant response rating, Pigweed, Palmer (palmer pigweed; [9]): 98 | Plant response rating, Pigweed, Palmer (palmer pigweed; [10]): 80

FC(F)(F)c1cnn(-c2c(Br)cccc2Oc2ncc(Cl)cn2)c1 [Compound 191]
Plant response rating, Panicum, Fall (fall panicum; [7]): 5 | Plant response rating, Panicum, Fall (fall panicum; [8]): 10 | Plant response rating, Panicum, Fall (fall panicum; [9]): 20 | Plant response rating, Panicum, Fall (fall panicum; [23]): 0 | Plant response rating, Panicum, Fall (fall panicum; [10]): 0 | Plant response rating, Barnyardgrass (barnyardgrass; 31 g ai/ha): 0 | Plant response rating, Barnyardgrass (barnyardgrass; 62 g ai/ha): 0 | Plant response rating, Barnyardgrass (barnyardgrass; 125 g ai/ha): 0 | Plant response rating, Barnyardgrass (barnyardgrass; 250 g ai/ha): 20 | Plant response rating, Waterhemp_RES2 [1, 7]: 95 | Plant response rating, Waterhemp_RES2 [1, 8]: 95 | Plant response rating, Waterhemp_RES2 [1, 9]: 100 | Plant response rating, Waterhemp_RES2 [1, 10]: 90 | Plant response rating, Waterhemp (waterhemp; [7]): 90 | Plant response rating, Waterhemp (waterhemp; [8]): 90 | Plant response rating, Waterhemp (waterhemp; [9]): 95 | Plant response rating, Waterhemp (waterhemp; [23]): 60 | Plant response rating, Waterhemp (waterhemp; [10]): 70 | Plant response rating, Waterhemp_RES1 [2, 7]: 80 | Plant response rating, Waterhemp_RES1 [2, 8]: 90 | Plant response rating, Waterhemp_RES1 [2, 9]: 95 | Plant response rating, Waterhemp_RES1 [2, 23]: 50 | Plant response rating, Waterhemp_RES1 [2, 10]: 70 | Plant response rating, Corn (corn; [7]): 10 | Plant response rating, Corn (corn; [8]): 10 | Plant response rating, Corn (corn; [9]): 15 | Plant response rating, Corn (corn; [23]): 0 | Plant response rating, Corn (corn; [10]): 0 | Plant response rating, Rice (rice; 31 g ai/ha): 0 | Plant response rating, Rice (rice; 62 g ai/ha): 0 | Plant response rating, Rice (rice; 125 g ai/ha): 0 | Plant response rating, Rice (rice; 250 g ai/ha): 0 | Plant response rating, Pigweed, Palmer (palmer pigweed; [7]): 75 | Plant response rating, Pigweed, Palmer (palmer pigweed; [8]): 75 | Plant response rating, Pigweed, Palmer (palmer pigweed; [9]): 85 | Plant response rating, Pigweed, Palmer (palmer pigweed; [23]): 20 | Plant response rating, Pigweed, Palmer (palmer pigweed; [10]): 40

N#Cc1cccc(Oc2ncc(Cl)cn2)c1-n1cc(OCC(F)(F)F)cn1 [Compound 274, 3-[(5-chloro-2-pyrimidinyl)oxy]-2-[4-(2,2,2-trifluoroethoxy)-1H-pyrazol-1-yl]benzonitrile]
pest or weed control at 31 g/ha (fall panicum; [3]): 20% | pest or weed control at 62 g/ha (fall panicum; [4]): 50% | pest or weed control at 125 g/ha (fall panicum; [5]): 20% | pest or weed control at 8 g/ha (fall panicum; Panicum dichotomiflorum, post-emergence, postemergence, 8 g ai/ha, scale 0 to 100, 0 no effect, 100 complete control, read-out: Plant response rating, Panicum, Fall): 10% | pest or weed control at 16 g/ha (fall panicum; [6]): 15% | pest or weed control at 31 g/ha [1, 7]: 85% | pest or weed control at 62 g/ha [1, 8]: 95% | pest or weed control at 125 g/ha [1, 9]: 100% | pest or weed control at 16 g/ha [1, 10]: 80% | pest or weed control at 31 g/ha (waterhemp; [11]): 90% | pest or weed control at 62 g/ha (waterhemp; [12]): 95% | pest or weed control at 125 g/ha (waterhemp; [13]): 98% | pest or weed control at 8 g/ha (waterhemp; Amaranthus tuberculatus, post-emergence, postemergence, 8 g ai/ha, scale 0 to 100, 0 no effect, 100 complete control, read-out: Plant response rating, Waterhemp): 70% | pest or weed control at 16 g/ha (waterhemp; [14]): 95% | Plant response rating, Waterhemp_RES1 [2, 7]: 80 | Plant response rating, Waterhemp_RES1 [2, 8]: 90 | Plant response rating, Waterhemp_RES1 [2, 9]: 100 | Plant response rating, Waterhemp_RES1 [2, 23]: 60 | Plant response rating, Waterhemp_RES1 [2, 10]: 75 | corn plant response (injury) rating, 0-100 at 31 g/ha (corn; [15]): 10% | corn plant response (injury) rating, 0-100 at 62 g/ha (corn; [16]): 10% | corn plant response (injury) rating, 0-100 at 125 g/ha (corn; [17]): 15% | corn plant response (injury) rating, 0-100 at 8 g/ha (corn; Zea mays, post-emergence, postemergence, 8 g ai/ha, scale 0 to 100, 0 no effect, 100 complete control): 10% | corn plant response (injury) rating, 0-100 at 16 g/ha (corn; [18]): 15% | pest or weed control at 31 g/ha (palmer pigweed; [19]): 85% | pest or weed control at 62 g/ha (palmer pigweed; [20]): 95% | pest or weed control at 125 g/ha (palmer pigweed; [21]): 100% | pest or weed control at 8 g/ha (palmer pigweed; post-emergence, postemergence, 8 g ai/ha, scale 0 to 100, 0 no effect, 100 complete control, read-out: Plant response rating, Pigweed, Palmer): 70% | pest or weed control at 16 g/ha (palmer pigweed; [22]): 65%
